The record followed here is US20230398125A1, “TREATING HEPATITIS” (Albireo AB, priority 2022, published 2023).

Some results are limits rather than exact numbers.

Series [1] deals with T1, Human NTCP (Homo sapiens, UniProt Q14973).
T1 construct: expressed in transfected cells; peptide purchased from Pharmaron
T1 sequence (Q14973 1-349): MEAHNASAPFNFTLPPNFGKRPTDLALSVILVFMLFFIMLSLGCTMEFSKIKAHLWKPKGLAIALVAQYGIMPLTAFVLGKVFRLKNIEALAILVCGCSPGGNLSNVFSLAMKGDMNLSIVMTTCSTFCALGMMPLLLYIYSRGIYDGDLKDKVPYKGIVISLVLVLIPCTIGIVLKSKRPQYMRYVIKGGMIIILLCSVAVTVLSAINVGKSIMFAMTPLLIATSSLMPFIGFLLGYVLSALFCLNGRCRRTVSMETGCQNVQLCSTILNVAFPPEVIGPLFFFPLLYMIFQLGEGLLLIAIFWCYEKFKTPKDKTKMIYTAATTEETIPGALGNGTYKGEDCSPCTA
Put plainly: [3H]taurocholate uptake in hNTCP-transfected CHO cells, apparent Ki and type of inhibition. The class given is cell-based. Here is the method: Stably hNTCP-transfected CHO cells were seeded onto 24 well plates. After overnight incubation, CHO cells were treated with 10 mM sodium butyrate to induce NTCP transporter expression. Twenty-four hours later, media was aspirated, cells were washed with warm Hanks balanced salt solution (HBSS) containing sodium (+Na). Cells were incubated with increasing doses of Compound 1 (for example: 0, 10 nM, 100 nM, 1 μM, 10 μM), in the presence of tracer doses of 5 μm, 10 μM, or 25 μM [^3H]taurocholate at 37° C. for <10 minutes. The cells were processed for radioactivity. The apparent Ki and kinetic types of inhibition (competitive, uncompetitive, non-competitive, mixed) were determined by complementary Dixon/Cornish-Bowden plot analysis and Lineweaver-Burk plot analysis.

The target of series [2] is T1, Human NTCP. Put plainly: Time course of dissociation (washout), [3H]taurocholate uptake in hNTCP CHO cells. Conditions: 1 μM for 15 min, 6 hours postwashout; read-out: inhibition of human NTCP BA transport activity after washout. The class given is cell-based. The procedure:
This study was performed using a [^3H]taurocholate uptake assay protocol. Stably transfected CHO cells expressing human NTCP (hNTCP) were seeded onto 24 well plates at a density of 1.5-2.0×10^5 cells/well in CHO cell media (DMEM/F12 media supplemented with 10% FBS, Penicillin/Streptomycin) plus Geneticin (G418) to maintain selection in culture. After overnight incubation, the media was replaced, and CHO cells were treated with 10 mM sodium butyrate to induce transporter expression (final concentration=[…]). Twenty-four h later, the media was removed, and cells were washed with warm (37° C.) Hanks balanced salt solution (HBSS) containing sodium (Na+). Cells were then incubated with 1 μM of the test inhibitors or vehicle (DMSO) for 15 min in CHO cell media at 37° C. […]
For the [^3H]taurocholate uptake assay, the media was aspirated at the end of each washout period, and cells were washed three times with warm Hanks balanced salt solution (HBSS) containing sodium (Na+). […] Duplicate 100 μL aliquots of the lysate were transferred to vials with scintillation liquid and counted after neutralization and overnight quenching. Cell-associated protein was measured in duplicate using the BCA protein assay, and cell-associated radioactivity was normalized to protein content.

In a further series the test system is NTCP-HepG2 cells. Put plainly: MTT cytotoxicity assay. The class given is cell-based, human. Conditions: 1 nM-100 μM, HepG2 cells expressing NTCP. The procedure: The In Vitro Toxicology Assay Kit (Sigma-Aldrich) was used to perform a 3-[4,5-dimethylthiazole-2-yl]-2,5-diphenyltetrazolium bromide (MTT) assay to measure the cytotoxicity of the test item according to the manufacturer's protocol. Briefly, NTCP-HepG2 cells were incubated with 100 μL of the indicated concentrations of the test item solved in Hepatocyte Growth Medium (HGM) over 6 h at 37° C. After 6 h, medium was replaced by inhibitor-free HGM and cells were cultured for additional 24 h. Then medium was removed and 100 μL DMEM containing 0.5 mg/mL MTT was added and cells were incubated for 1 h at 37° C. Finally, the medium was replaced by 100 μL isopropyl alcohol (Sigma-Aldrich) and samples were measured by Glo-Max-Multi Detection System (Promega, Madison, Wis., USA). See also Lowjaga K A A, et al. (2020). Long-term trans-inhibition of the hepatitis B and D virus receptor NTCP by taurolithocholic acid. Am J Physiol Gastrointest Liver Physiol 320(1):G66-G80; and Kirstgen et al. 2021.

For the compound `CCCCC1CN(c2ccccc2)c2cc(SC)c(O/C=C(\F)C(=O)O)cc2S(=O)(=O)N1C` (stereo not shown) [Compound 1, (Z)-3-((3-butyl-2-methyl-7-(methylthio)-1,1-dioxido-5-phenyl-2,3,4,5-tetrahydro-1,2,5-benzothiadiazepin-8-yl)oxy)-2-fluoroacrylic acid], on Human NTCP [1] (Dixon/Cornish-Bowden and Lineweaver-Burk analysis, NTCP and ASBT), the “kinetic type of inhibition of transporter activity” value is listed as “competitive inhibitor”. Also, the Ki at Human NTCP [1] ([3H]taurocholate, CHO cells, read-out: inhibitory constant (Ki) for human NTCP) stood at 15 nM. The inhibition at 1 µM on Human NTCP [2] is over 50%. Further, the “cytotoxic effects (MTT)” value with NTCP-HepG2 cells is listed as “no cytotoxic effects”.
